The values that follow come from US9732094B2, “Arylquinazolines” (Merck Patent GmbH, priority 2013, dated 2017).

Series [1] addresses DNA-PK phosphorylation at serine 2056 (Homo sapiens (Human), UniProt P78527). The experiment in a line: DNA-PK phosphorylation at serine 2056 (cellular), bleomycin-treated HCT116 cells, ELISA. It is filed as cell-based. As to the method: HCT116 cells were cultivated at 37° C. and 10% CO2 in MEM alpha medium with 10% of foetal calf serum and 2 mM glutamine. The cells were detached from the base of the culture vessels with the aid of trypsin/EDTA, centrifuged off in centrifuge tubes, taken up in fresh medium, and the cell density was determined. 100,000 cells were sown in 1 ml of culture medium per cavity of a 24-well cell culture plate and cultivated overnight. Next day, 10 μM bleomycin (DNA intercalator and inductor of DNA double-strand breaks) and test substances in fresh culture medium were added to the cells, and these were cultivated for a further six hours. […] The 96-well ELISA plates were subsequently treated with a detection antibody (Abcam ab79444: total DNA-PK) and a streptavidin-HRP conjugate. The development of the enzymatic reaction was carried out with the aid of a chemiluminescent reagent, the chemiluminescence was measured with the aid of a Mithras LB940. The signals with the phospho-DNA-PK-specific antibody were standardised to the signal with the antibody against the total protein DNA-PKc. […] The DMSO control was used as blank.

The next series deals with DNA-PK (Homo sapiens (Human), UniProt P78527). The experiment in a line: DNA-PK assay (biochemical), flashplate 33P-ATP kinase assay. The method, then: A) DNA-PK Assay (Biochemical)
The kinase assay was carried out in streptavidin-coated […] microtitre flashplates. […] The reaction was stopped using 50 μl/well of 200 mM EDTA. After incubation for a further 30 min at room temperature, the liquid was removed. Each well was washed three times with 100 μl of 0.9% saline solution. A nonspecific reaction (blank value) was determined using 10 μM of an innate kinase inhibitor. The radioactivity measurement was carried out using a TopCount. IC50 values were calculated in RS1.

A further series deals with Kv11.1 (hERG) (Homo sapiens (Human), UniProt Q12809). The experiment in a line: Kv11.1 (hERG) ion channel activity (patch clamp assay), HEK293 cells transfected with hERG gene.
Setting [2] is: cellular, HCT116 cells, 10 μM bleomycin, six hours, read-out: IC50 pDNA-PK.
The mark [3] stands for this setting: read-out: Ki [Kv1.11 hERG], patch clamp, HEK293 transfected with hERG gene.
Setting [4] is: Ki [Kv1.11 hERG], hERG patch clamp assay (cells without asterisk).
The mark [5] stands for this setting: Ki [Kv1.11 hERG], patch clamp, HEK293 transfected with hERG gene.
Where [6] appears, read: read-out: Ki [Kv1.11 hERG], Table 5.

The structures appear in SMILES notation. Like-named read-outs stand apart in the source and are kept apart here.

Kv11.1 (hERG), sequence (Q12809 whole entry): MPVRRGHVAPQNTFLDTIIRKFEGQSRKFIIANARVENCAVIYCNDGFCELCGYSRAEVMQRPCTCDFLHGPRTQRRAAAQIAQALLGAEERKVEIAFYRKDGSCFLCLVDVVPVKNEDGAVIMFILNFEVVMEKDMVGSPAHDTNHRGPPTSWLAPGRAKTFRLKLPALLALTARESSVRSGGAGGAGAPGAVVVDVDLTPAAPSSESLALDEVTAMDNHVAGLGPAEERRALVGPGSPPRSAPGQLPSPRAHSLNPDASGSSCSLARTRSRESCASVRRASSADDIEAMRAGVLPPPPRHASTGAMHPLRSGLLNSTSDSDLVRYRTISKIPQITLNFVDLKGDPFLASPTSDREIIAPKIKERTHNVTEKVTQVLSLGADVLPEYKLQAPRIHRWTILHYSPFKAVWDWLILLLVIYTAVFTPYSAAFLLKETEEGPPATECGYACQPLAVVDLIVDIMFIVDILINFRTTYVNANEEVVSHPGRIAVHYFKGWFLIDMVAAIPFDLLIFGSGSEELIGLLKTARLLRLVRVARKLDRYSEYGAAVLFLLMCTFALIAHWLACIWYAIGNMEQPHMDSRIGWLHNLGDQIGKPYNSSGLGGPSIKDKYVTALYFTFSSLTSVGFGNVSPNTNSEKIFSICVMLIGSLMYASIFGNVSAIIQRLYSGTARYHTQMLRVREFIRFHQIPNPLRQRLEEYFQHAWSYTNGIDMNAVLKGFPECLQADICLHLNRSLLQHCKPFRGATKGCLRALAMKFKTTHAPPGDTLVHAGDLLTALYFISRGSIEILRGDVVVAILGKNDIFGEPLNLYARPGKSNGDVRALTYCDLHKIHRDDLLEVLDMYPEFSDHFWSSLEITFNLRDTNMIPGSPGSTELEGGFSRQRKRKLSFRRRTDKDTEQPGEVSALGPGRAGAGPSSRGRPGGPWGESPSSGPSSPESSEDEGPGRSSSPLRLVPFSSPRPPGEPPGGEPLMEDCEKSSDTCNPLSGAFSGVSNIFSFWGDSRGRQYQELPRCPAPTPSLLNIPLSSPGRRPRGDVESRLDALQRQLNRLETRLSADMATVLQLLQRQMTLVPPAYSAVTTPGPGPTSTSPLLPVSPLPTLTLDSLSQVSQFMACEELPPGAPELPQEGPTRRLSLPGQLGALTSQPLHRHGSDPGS

On to `OC(c1cccnc1)c1cc(-c2ncnc3cc(N4CCOCC4)ccc23)c(F)cc1F` (stereo not drawn) [Example 217, [2,4-Difluoro-5-(7-morpholin-4-ylquinazolin-4-yl)phenyl]pyridin-3-ylmethanol], for which the concentration for half-maximal inhibition (IC50) in series [1] (Table 7, HCT116 cells, read-out: IC50 pDNA-PK) is less than 0.5 µM; against DNA-PK (Table 7), 0.003 to 0.007 µM. Further, the Ki on Kv11.1 (hERG) (read-out: Ki [Kv1.11 hERG], Table 7) was greater than 25 µM. On to `COc1nccnc1C(O)c1ccc(F)c(-c2ncnc3cc(N4CCOCC4)ccc23)c1` (stereo not drawn) [Example 38, [4-Fluoro-3-(7-morpholin-4-yl-quinazolin-4-yl)phenyl]-(3-methoxy-pyrazin-2-yl)methanol], for which the concentration for half-maximal inhibition (IC50) was less than 0.5 µM in series [1] (setting [2]) and less than 0.003 µM against DNA-PK (enzymatic, 5 μM ATP). Also, the inhibition constant Ki at Kv11.1 (hERG) (setting [3]) is greater than 25 µM. In the same order, the values of `COc1cnc(C(O)c2ccc(F)c(-c3ncnc4cc(N5CCOCC5)ccc34)c2)cn1` (stereo not drawn) [Example 53, [4-Fluoro-3-(7-morpholin-4-yl-quinazolin-4-yl)phenyl]-(5-methoxy-pyrazin-2-yl)methanol] are 5 to 10 µM, 0.003 to 0.007 µM and greater than 25 µM.

`CN(C)C(=O)c1ccc(C(O)c2cc(-c3ncnc4cc(N5CCOCC5)ccc34)c(F)cc2Cl)nn1` (stereo not drawn) [Example 50, 6-{[2-Chloro-4-fluoro-5-(7-morpholin-4-yl-quinazolin-4-yl)phenyl]-hydroxymethyl}-pyridazine-3-carboxylic acid dimethylamide]: the IC50 fell in the range of 10 to 30 µM in series [1] (setting [2]) and 0.007 to 0.03 µM at DNA-PK (enzymatic, 5 μM ATP). Moreover, at Kv11.1 (hERG) (setting [3]), the Ki was greater than 25 µM. For `COc1ccc([C@@H](O)c2cc(-c3ncnc4cc(N5CCOCC5)ccc34)c(F)cc2Cl)nn1` [Example 136, (S)-[2-Chloro-4-fluoro-5-(7-morpholin-4-yl-quinazolin-4-yl)-phenyl]-(6-methoxy-pyridazin-3-yl)-methanol], the Ki at Kv11.1 (hERG) (setting [3]) is greater than 25 µM. Turning to `[2H]C1([2H])OC([2H])([2H])C([2H])([2H])N(c2ccc3c(-c4cc(C(O)c5ccc(OC)nn5)c(Cl)cc4F)ncnc3c2)C1([2H])[2H]` (single isomer, unassigned) [Example 239, [2-Chloro-4-fluoro-5-[7-(2,2.3,3,5,5,6,6-octadeuteriomorpholin-4-yl)quinazolin-4-yl]phenyl]-(6-methoxypyridazin-3-yl)methanol], the inhibitory constant (Ki) on Kv11.1 (hERG) (setting [4]) was 15 to 25 µM.

`COc1ccc(C(O)c2cc(-c3ncnc4cc(N5CCOCC5)ccc34)c(F)cc2Cl)nn1` (stereo not drawn) [Example 137, [2-Chloro-4-fluoro-5-(7-morpholin-4-ylquinazolin-4-yl)-phenyl]-(6-methoxy-pyridazin-3-yl)-methanol] showed an inhibitory constant (Ki) at Kv11.1 (hERG) (setting [5]) of 10 to 15 µM. In turn, `CC(C)(C)n1cc(C(O)c2cc(-c3ncnc4cc(N5CCOCC5)ccc34)cnc2F)cn1` (stereo not drawn) [Example 198, (1-tert-Butyl-1H-pyrazol-4-yl)-[2-fluoro-5-(7-morpholin-4-yl-quinazolin-4-yl)-pyridin-3-yl]-methanol] yielded an IC50 at DNA-PK (Table 5) of 0.007 to 0.03 µM. Besides, at Kv11.1 (hERG) (setting [6]), the inhibition constant Ki was greater than 25 µM. The compound `Cc1nc(C(O)c2cc(-c3ncnc4cc(N5CCOCC5)ccc34)cnc2F)sc1C` (stereo not drawn) [Example 206, (4,5-Dimethyl-thiazol-2-yl)-[2-fluoro-5-(7-morpholin-4-yl-quinazolin-4-yl)-pyridin-3-yl]-methanol] displayed an IC50 at DNA-PK (Table 5) greater than 0.03 µM. At Kv11.1 (hERG) (Ki [Kv1.11 hERG], Table 5), this compound yielded a Ki of 15 to 25 µM.

`CC(O)(c1cccc(-c2ncnc3cc(N4CCOCC4)ccc23)c1)c1nccs1` (stereo not drawn) [Example 154, 1-[3-(7-Morpholin-4-ylquinazolin-4-yl)-phenyl]-1-thiazol-2-ylethanol] had an IC50 at DNA-PK (Table 5) greater than 0.03 µM. At Kv11.1 (hERG) (Ki [Kv1.11 hERG], Table 5), this compound had a Ki of 15 to 25 µM. For the compound `OC(c1ccc(F)c(-c2ncnc3cc(N4CCOCC4)sc23)c1)c1nccs1` (stereo not drawn) [Example 145, [4-fluoro-3-(6-morpholin-4-ylthieno[3,2-d]pyrimidin-4-yl)phenyl]thiazol-2-ylmethanol], the IC50 in series [1] (Table 5, HCT116 cells, read-out: IC50 pDNA-PK) lay within 0.5 to 5 µM. The Ki at Kv11.1 (hERG) (setting [6]) was greater than 25 µM. `Cc1nc(C(O)c2cc(-c3ncnc4cc(N5CCOCC5)ncc34)cnc2F)sc1C` (stereo not drawn) [Example 192, (4,5-Dimethyl-thiazol-2-yl)-[2-fluoro-5-(7-morpholin-4-yl-pyrido[4,3-d}-pyrimidin-4-yl)-pyridin-3-yl]-methanol] registered an IC50 against DNA-PK (Table 5) greater than 0.03 µM. The compound also returned a Ki at Kv11.1 (hERG) (Ki [Kv1.11 hERG], Table 5) of 10 to 15 µM. The like results for `Cc1csc(C(O)c2cnc(F)c(-c3ncnc4cc(N5CCOCC5)ncc34)c2)n1` (stereo not drawn) [Example 195, [6-Fluoro-5-(7-morpholin-4-yl-pyrido[4,3-d}-pyrimidin-4-yl)-pyridin-3-yl]-(4-methyl-thiazol-2-yl)-methanol] were, in that order, greater than 0.03 µM and 15 to 25 µM. In the case of `[2H]c1c(N2CCOCC2)cc2ncnc(-c3cc(C(O)c4ccc(OC)nn4)c(Cl)cc3F)c2c1[2H]` (stereo not drawn) [Example 225, [2-Chloro-5-(5,6-dideuterio-7-morpholinylquinazolin-4-yl)-4-fluorophenyl]-(6-methoxypyridazin-3-yl)methanol], on Kv11.1 (hERG) (setting [4]), the Ki was greater than 25 µM. With `COc1ccc(C(O)c2cc(-c3ncnc4cc(N5CCOCC5)ccc34)c(F)cc2F)nn1` (single isomer, unassigned) [Example 130, [2,4-Difluoro-5-(7-morpholin-4-yl-quinazolin-4-yl)-phenyl]-(6-methoxy-pyridazin-3-yl)-methanol], the Ki on Kv11.1 (hERG) (setting [3]) was greater than 25 µM. `Cc1nc(C(O)c2cc(-c3ncnc4cc(N5CCOCC5)ccc34)cnc2F)sc1C` (stereo not drawn) [Example 194, (4,5-Dimethyl-thiazol-2-yl)-[2-fluoro-5-(7-morpholin-4-yl-quinazolin-4-yl)-pyridin-3-yl]-methanol] returned an IC50 against DNA-PK (Table 5) of 0.007 to 0.03 µM. For the same compound, the Ki at Kv11.1 (hERG) (setting [6]) was greater than 25 µM. Turning to `COc1ccc([C@H](O)c2cc(-c3ncnc4cc(N5CCOCC5)ccc34)c(F)cc2Cl)nn1` [Example 135, (R)-[2-Chloro-4-fluoro-5-(7-morpholin-4-yl-quinazolin-4-yl)-phenyl]-(6-methoxy-pyridazin-3-yl)-methanol], the Ki at Kv11.1 (hERG) (setting [3]) was greater than 25 µM. In turn, `OC(c1ccc(-c2ncnc3cc(N4CCOCC4)ccc23)s1)c1nccs1` (stereo not drawn) [Example 147, [5-(7-Morpholin-4-ylquinazolin-4-yl)-thiophen-2-yl]-thiazol-2-ylmethanol] displayed a Ki on Kv11.1 (hERG) (Ki [Kv1.11 hERG], Table 5) of 10 to 15 µM. On to `CC(O)(c1cncc(-c2ncnc3cc(N4CCOCC4)ccc23)c1)c1nccs1` (stereo not drawn) [Example 138, 1-[5-(7-Morpholin-4-ylquinazolin-4-yl)-pyridin-3-yl]-1-thiazol-2-ylethanol], for which the IC50 on DNA-PK (Table 5) was greater than 0.03 µM. At Kv11.1 (hERG) (Ki [Kv1.11 hERG], Table 5), this compound came in with a Ki of 15 to 25 µM.

As for `OC(c1cccc(-c2ncnc3cc(N4CCOCC4)ccc23)c1)c1nccs1` (stereo not drawn) [Example 149, [3-(7-Morpholin-4-ylquinazolin-4-yl)-phenyl]thiazol-2-yl-methanol], the IC50 against DNA-PK (Table 5) was greater than 0.03 µM. In addition, the Ki on Kv11.1 (hERG) (setting [6]) is greater than 25 µM. With `OC(c1ccc(OC2COC2)nn1)c1cc(-c2ncnc3cc(N4CCOCC4)ccc23)c(F)cc1Cl` (stereo not drawn) [Example 100, [2-Chloro-4-fluoro-5-(7-morpholin-4-yl-quinazolin-4-yl)-phenyl]-[6-(oxetan-3-yloxy)pyridazin-3-yl)-methanol], the IC50 in series [1] (setting [2]) was less than 0.5 µM. For the same compound, the Ki on Kv11.1 (hERG) (setting [5]) lay within 10 to 15 µM. At Kv11.1 (hERG) (setting [5]), `COc1ccc(C(O)c2cc(-c3ncnc4cc(N5CCOCC5)ccc34)c(F)cc2F)nn1` (stereo not drawn) [Example 131, [2,4-Difluoro-5-(7-morpholin-4-yl-quinazolin-4-yl)-phenyl]-(6-methoxy-pyridazin-3-yl)-methanol] returned a Ki of 15 to 25 µM. `COc1ccc(C(O)c2cc(-c3ncnc4cc(N5CCOCC5)ccc34)c(F)cc2F)nn1` (single isomer, unassigned) [Example 129, [2,4-Difluoro-5-(7-morpholin-4-yl-quinazolin-4-yl)-phenyl]-(6-methoxy-pyridazin-3-yl)-methanol]: the Ki at Kv11.1 (hERG) (setting [5]) was in the range of 15 to 25 µM.

In turn, `OCc1csc(C(O)c2cc(-c3ncnc4cc(N5C6CCC5COC6)ccc34)c(F)cc2Cl)n1` (stereo not drawn) [Example 187, {2-Chloro-4-fluoro-5-[7-(3-oxa-8-aza-bicyclo[3.2.1]oct-8-yl)quinazolin-4-yl]-phenyl}-(4-hydroxy-methylthiazol-2-yl)-methanol] registered an IC50 in series [1] (IC50 pDNA-PK, Table 5, HCT116 cells) of 10 to 30 µM. In addition, the Ki on Kv11.1 (hERG) (Ki [Kv1.11 hERG], Table 5) fell in the range of 15 to 25 µM. As to `NC(=O)C(c1cc(-c2ncnc3cc(N4CCOCC4)ccc23)c(F)cc1Cl)c1ncnn2cccc12` (stereo not drawn) [Example 309, 2-[2-Chloro-4-fluoro-5-(7-morpholin-4-yl-quinazolin-4-yl)-phenyl]-2-[3H-pyrrolo[2,1-f][1,2,4]-triazin-(4E)-ylidene]-acetamide], in series [1] (cellular DNA-PK phosphorylation at serine 2056, HCT116, read-out: IC50 pDNA-PK), the IC50 was 10 to 30 µM. The Ki on Kv11.1 (hERG) (read-out: Ki [Kv1.11 hERG], hERG patch clamp assay (cells without asterisk)) was less than 10 µM.
